Measurements as given in paper PMC5218480 (PLoS ONE, 2017).

Tested on: MV-4-11 cells
Assay: Gene expression microarray analysis (Affymetrix PrimeView) and GSEA
Format: cell-based, human
Set-up: RFU PODN (11730768_x_at) / Fold change /veh PODN (11730768_x_at) / RFU LINC00158 (11744669_a_at) / Fold change /veh LINC00158 (11744669_a_at) / RFU DUSP10 (11751237_a_at) / Fold change /veh DUSP10 (11751237_a_at) / RFU ID3 (11757404_x_at) / Fold change /veh ID3 (11757404_x_at) / RFU PLEKHG5 (11737974_s_at) / Fold change /veh PLEKHG5 (11737974_s_at) / RFU LRRC4B (11730491_at) / Fold change /veh LRRC4B (11730491_at) / RFU GIMAP4 (11747438_a_at) / Fold change /veh GIMAP4 (11747438_a_at) / RFU KRT8 (11758183_x_at) / Fold change /veh KRT8 (11758183_x_at) / RFU CNN1 (11734310_a_at) / Fold change /veh CNN1 (11734310_a_at) / RFU VPS37D (11726825_at) / Fold change /veh VPS37D (11726825_at) / RFU C10orf10 (11716522_x_at) / Fold change /veh C10orf10 (11716522_x_at) / RFU KIR2DL2 /// KIR2DL4 /// KIR2DL5A /// KIR2DL5B /// KIR2DS1 /// KIR2DS2 /// KIR2DS3 /// KIR2DS4 /// KIR3DL3 /// KIR3DL3 /// KIR3DS1 (11738374_at) / Fold change /veh KIR2DL2 /// KIR2DL4 /// KIR2DL5A /// KIR2DL5B /// KIR2DS1 /// KIR2DS2 /// KIR2DS3 /// KIR2DS4 /// KIR3DL3 /// KIR3DL3 /// KIR3DS1 (11738374_at) / RFU C1QL1 (11718748_at) / Fold change /veh C1QL1 (11718748_at) / RFU TMPRSS4 (11747572_a_at) / Fold change /veh TMPRSS4 (11747572_a_at) / RFU HAMP (11756126_x_at) / Fold change /veh HAMP (11756126_x_at) / RFU RNFT2 (11725882_a_at) / Fold change /veh RNFT2 (11725882_a_at) / RFU NR4A2 (11747474_a_at) / Fold change /veh NR4A2 (11747474_a_at) / RFU ABCC12 (11746883_a_at) / Fold change /veh ABCC12 (11746883_a_at) / RFU TMEM136 (11760407_x_at) / Fold change /veh TMEM136 (11760407_x_at) / RFU CLDN22 /// WWC2 (11732394_at) / Fold change /veh CLDN22 /// WWC2 (11732394_at) / RFU HLA-DPB1 (11760878_x_at) / Fold change /veh HLA-DPB1 (11760878_x_at) / RFU SPINT1 (11716480_a_at) / Fold change /veh SPINT1 (11716480_a_at) / RFU GAP43 (11754022_s_at) / Fold change /veh GAP43 (11754022_s_at) / RFU A4GNT (11735810_at) / Fold change /veh A4GNT (11735810_at) / RFU PRB3 (11715151_x_at) / Fold change /veh PRB3 (11715151_x_at) / RFU TUBB4B (11761932_at) / Fold change /veh TUBB4B (11761932_at) / RFU CAPN14 (11732068_a_at) / Fold change /veh CAPN14 (11732068_a_at) / RFU TMCC2 (11721928_a_at) / Fold change /veh TMCC2 (11721928_a_at) / RFU IRGQ (11745062_a_at) / Fold change /veh IRGQ (11745062_a_at) / RFU FAM174B (11720279_a_at) / Fold change /veh FAM174B (11720279_a_at) / RFU TMPRSS4 (11748680_a_at) / Fold change /veh TMPRSS4 (11748680_a_at) / RFU FAM212B (11763350_a_at) / Fold change /veh FAM212B (11763350_a_at) / RFU PLEKHG5 (11743358_a_at) / Fold change /veh PLEKHG5 (11743358_a_at) / RFU ZSCAN30 (11745921_a_at) / Fold change /veh ZSCAN30 (11745921_a_at) / RFU CMKLR1 (11741424_a_at) / Fold change /veh CMKLR1 (11741424_a_at) / RFU LOC101060620 /// MAPK8IP1 (11723275_at) / Fold change /veh LOC101060620 /// MAPK8IP1 (11723275_at) / RFU SPTSSB (11747773_x_at) / Fold change /veh SPTSSB (11747773_x_at) / RFU PRSS12 (11739890_at) / Fold change /veh PRSS12 (11739890_at) / RFU BIN1 (11741810_x_at) / Fold change /veh BIN1 (11741810_x_at) / RFU WNT11 (11732464_a_at) / Fold change /veh WNT11 (11732464_a_at) / RFU C10orf10 (11716521_a_at) / Fold change /veh C10orf10 (11716521_a_at) / RFU C5orf56 (11738089_at) / Fold change /veh C5orf56 (11738089_at) / RFU CYB561 (11721691_x_at) / Fold change /veh CYB561 (11721691_x_at) / RFU ANKRD19P (11752326_a_at) / Fold change /veh ANKRD19P (11752326_a_at) / RFU OR2T12 /// OR2T33 /// OR2T8 (11738714_s_at) / Fold change /veh OR2T12 /// OR2T33 /// OR2T8 (11738714_s_at) / RFU VCAN (11748164_a_at) / Fold change /veh VCAN (11748164_a_at) / RFU JSRP1 (11732532_at) / Fold change /veh JSRP1 (11732532_at) / RFU KRTAP10-11 (11738290_x_at) / Fold change /veh KRTAP10-11 (11738290_x_at) / RFU MYO3A (11730013_a_at) / Fold change /veh MYO3A (11730013_a_at) / RFU EBF3 (11725865_a_at) / Fold change /veh EBF3 (11725865_a_at) / RFU CAMK2N1 (11719241_x_at) / Fold change /veh CAMK2N1 (11719241_x_at) / RFU C5orf56 (11738088_a_at) / Fold change /veh C5orf56 (11738088_a_at) / RFU OLFML3 (11715873_a_at) / Fold change /veh OLFML3 (11715873_a_at) / RFU LOC100653217 /// NTM (11731650_a_at) / Fold change /veh LOC100653217 /// NTM (11731650_a_at) / RFU MAPK11 (11762145_a_at) / Fold change /veh MAPK11 (11762145_a_at) / RFU FIZ1 (11724087_x_at) / Fold change /veh FIZ1 (11724087_x_at) / RFU OASL (11726364_x_at) / Fold change /veh OASL (11726364_x_at) / RFU SOX15 (11748057_x_at) / Fold change /veh SOX15 (11748057_x_at) / RFU CD79A (11719716_a_at) / Fold change /veh CD79A (11719716_a_at) / RFU HIST1H1D (11736915_at) / Fold change /veh HIST1H1D (11736915_at) / RFU CASKIN2 (11723855_a_at) / Fold change /veh CASKIN2 (11723855_a_at) / RFU LOC730098 (11760151_x_at) / Fold change /veh LOC730098 (11760151_x_at) / RFU OR4N2 (11742367_at) / Fold change /veh OR4N2 (11742367_at) / RFU PRRT2 (11749266_a_at) / Fold change /veh PRRT2 (11749266_a_at) / RFU SNX32 (11753110_a_at) / Fold change /veh SNX32 (11753110_a_at) / RFU CDHR5 (11726645_a_at) / Fold change /veh CDHR5 (11726645_a_at) / RFU RCAN1 (11760418_a_at) / Fold change /veh RCAN1 (11760418_a_at) / RFU FAM167A (11723789_a_at) / Fold change /veh FAM167A (11723789_a_at) / RFU FAM26E (11764081_at) / Fold change /veh FAM26E (11764081_at) / RFU ISYNA1 (11749810_s_at) / Fold change /veh ISYNA1 (11749810_s_at) / RFU ACY1 (11761880_at) / Fold change /veh ACY1 (11761880_at) / RFU 11764098_at / Fold change /veh 11764098_at / RFU SAMD14 (11745864_x_at) / Fold change /veh SAMD14 (11745864_x_at) / RFU NPB (11741838_a_at) / Fold change /veh NPB (11741838_a_at) / RFU TMPRSS6 (11731388_a_at) / Fold change /veh TMPRSS6 (11731388_a_at) / RFU KRTAP10-2 (11738614_at) / Fold change /veh KRTAP10-2 (11738614_at) / RFU ARHGAP8 /// PRR5-ARHGAP8 (11727945_x_at) / Fold change /veh ARHGAP8 /// PRR5-ARHGAP8 (11727945_x_at) / RFU KRTAP5-7 /// NADSYN1 (11734609_at) / Fold change /veh KRTAP5-7 /// NADSYN1 (11734609_at) / RFU RASL12 (11751679_a_at) / Fold change /veh RASL12 (11751679_a_at) / RFU CDKN2B (11736163_a_at) / Fold change /veh CDKN2B (11736163_a_at) / RFU PRF1 (11729649_at) / Fold change /veh PRF1 (11729649_at) / RFU, ZNF638 /// ZNF638-IT1 / Fold change vs veh, ZNF638 /// ZNF638-IT1 / RFU, PANK3 / Fold change vs veh, PANK3 / RFU, SH3YL1 / Fold change vs veh, SH3YL1 / RFU, ZEB2 / Fold change vs veh, ZEB2 / RFU, NRIP1 / Fold change vs veh, NRIP1 / RFU, PTTG1IP / Fold change vs veh, PTTG1IP / RFU, CAPN2 / Fold change vs veh, CAPN2 / RFU, MED14 / Fold change vs veh, MED14 / RFU, SNORA58 / Fold change vs veh, SNORA58 / RFU, C1orf63 / Fold change vs veh, C1orf63 / RFU, LRRFIP1 / Fold change vs veh, LRRFIP1 / RFU, NDUFAF7 / Fold change vs veh, NDUFAF7 / RFU, SLC12A2 / Fold change vs veh, SLC12A2 / RFU, IBTK / Fold change vs veh, IBTK / RFU, ESF1 / Fold change vs veh, ESF1 / Fold change vs veh, TMEM50B / RFU, TAOK1 / Fold change vs veh, TAOK1 / RFU, ACBD3 / Fold change vs veh, ACBD3 / RFU, TMA16 / Fold change vs veh, TMA16 / RFU, RWDD3 / Fold change vs veh, RWDD3 / RFU, BCAT1 / Fold change vs veh, BCAT1 / RFU, EDEM3 / Fold change vs veh, EDEM3 / RFU, TMEM33 / Fold change vs veh, TMEM33 / RFU, WDR75 / Fold change vs veh, WDR75 / RFU, AHCTF1 / Fold change vs veh, AHCTF1 / RFU, TFRC / Fold change vs veh, TFRC / RFU, ZDHHC17 / Fold change vs veh, ZDHHC17 / RFU, NOM1 / Fold change vs veh, NOM1 / RFU, ARL8B / Fold change vs veh, ARL8B / RFU, ZBTB11 / Fold change vs veh, ZBTB11 / RFU, TAMM41 / Fold change vs veh, TAMM41 / RFU, KIAA1704 /// LOC100996395 / Fold change vs veh, KIAA1704 /// LOC100996395 / RFU, ING1 / Fold change vs veh, ING1 / RFU, TRMT61B / Fold change vs veh, TRMT61B / RFU, FUBP3 / Fold change vs veh, FUBP3 / RFU, TP53 / Fold change vs veh, TP53 / RFU, TNKS2 / Fold change vs veh, TNKS2 / RFU, ZFP14 / Fold change vs veh, ZFP14 / RFU, ACTR2 / Fold change vs veh, ACTR2 / RFU, PPP3R1 / Fold change vs veh, PPP3R1 / RFU, PIK3R1 / Fold change vs veh, PIK3R1 / RFU, HNRNPA1 / Fold change vs veh, HNRNPA1 / RFU, RNF170 / Fold change vs veh, RNF170 / RFU, ZNF28 / Fold change vs veh, ZNF28 / RFU, RNGTT / Fold change vs veh, RNGTT / RFU, OGT / Fold change vs veh, OGT / RFU, BRD1 / Fold change vs veh, BRD1 / RFU, MARS / Fold change vs veh, MARS / RFU, ZNF655 / Fold change vs veh, ZNF655 / RFU, FAHD1 / Fold change vs veh, FAHD1 / RFU, BDP1 / Fold change vs veh, BDP1 / RFU, LRRCC1 / Fold change vs veh, LRRCC1 / RFU, ARID1A / Fold change vs veh, ARID1A / RFU, ZNF146 / Fold change vs veh, ZNF146 / RFU, ZNF330 / Fold change vs veh, ZNF330 / RFU, GPN3 / Fold change vs veh, GPN3 / RFU, C9orf123 / Fold change vs veh, C9orf123 / RFU, N4BP2L2 / Fold change vs veh, N4BP2L2 / RFU, ARFIP1 / Fold change vs veh, ARFIP1 / RFU, FAM179B / Fold change vs veh, FAM179B / RFU, BCL10 / Fold change vs veh, BCL10 / RFU, UHRF1BP1L / Fold change vs veh, UHRF1BP1L / RFU, BET1 / Fold change vs veh, BET1 / RFU, CNOT2 / Fold change vs veh, CNOT2 / RFU, ZNF268 / Fold change vs veh, ZNF268 / Fold change vs veh, ZNF507 / RFU, DGCR2 / Fold change vs veh, DGCR2 / RFU, WDSUB1 / Fold change vs veh, WDSUB1 / Fold change vs veh, HSP90B1 /// MIR3652 / RFU, ADSS / Fold change vs veh, ADSS / RFU, GK / Fold change vs veh, GK / RFU, ZNF148 / Fold change vs veh, ZNF148 / RFU, TAF9 / Fold change vs veh, TAF9 / RFU, SLC1A5 / Fold change vs veh, SLC1A5 / RFU, SLMO2 / Fold change vs veh, SLMO2 / RFU, ABCC4 / Fold change vs veh, ABCC4 / RFU, LOC101060439 /// RAP1B / Fold change vs veh, LOC101060439 /// RAP1B / RFU, RFX7 / Fold change vs veh, RFX7 / RFU, GTPBP10 / Fold change vs veh, GTPBP10 / RFU, CNEP1R1 / Fold change vs veh, CNEP1R1 / RFU, BIVM-ERCC5 /// ERCC5 / Fold change vs veh, BIVM-ERCC5 /// ERCC5 / RFU, ILF3 / Fold change vs veh, ILF3 / RFU 11762660_at / Fold change /veh 11762660_at / RFU VCAN (11757783_s_at) / Fold change /veh VCAN (11757783_s_at) / RFU DDX43 (11728927_at) / Fold change /veh DDX43 (11728927_at) / RFU KRT8 (11758188_x_at) / Fold change /veh KRT8 (11758188_x_at) / RFU NKD1 (11759106_at) / Fold change /veh NKD1 (11759106_at) / RFU SRD5A1 (11742802_a_at) / Fold change /veh SRD5A1 (11742802_a_at) / RFU TPSAB1 /// TPSB2 (11721975_s_at) / Fold change /veh TPSAB1 /// TPSB2 (11721975_s_at) / RFU GSTM3 (11746129_a_at) / Fold change /veh GSTM3 (11746129_a_at) / RFU IL23R (11737362_x_at) / Fold change /veh IL23R (11737362_x_at) / RFU TMEM51 (11727254_a_at) / Fold change /veh TMEM51 (11727254_a_at) / RFU PIWIL2 (11732686_x_at) / Fold change /veh PIWIL2 (11732686_x_at) / RFU ORM1 (11744905_x_at) / Fold change /veh ORM1 (11744905_x_at) / RFU CCDC152 (11743942_at) / Fold change /veh CCDC152 (11743942_at) / RFU ECM1 (11717891_a_at) / Fold change /veh ECM1 (11717891_a_at) / RFU IL23R (11748794_a_at) / Fold change /veh IL23R (11748794_a_at) / RFU TNFAIP8L3 (11732012_x_at) / Fold change /veh TNFAIP8L3 (11732012_x_at) / RFU MBOAT4 (11741988_at) / Fold change /veh MBOAT4 (11741988_at) / RFU 11764193_at / Fold change /veh 11764193_at / RFU TMEM53 (11763286_at) / Fold change /veh TMEM53 (11763286_at) / RFU MAGEB2 (11727129_at) / Fold change /veh MAGEB2 (11727129_at) / RFU TMEM200A (11744735_a_at) / Fold change /veh TMEM200A (11744735_a_at) / RFU CCDC152 (11751479_a_at) / Fold change /veh CCDC152 (11751479_a_at) / RFU FAM211A (11726209_a_at) / Fold change /veh FAM211A (11726209_a_at) / RFU RGS16 (11746705_a_at) / Fold change /veh RGS16 (11746705_a_at) / RFU VCAN (11755009_s_at) / Fold change /veh VCAN (11755009_s_at) / RFU RHOB (11743442_s_at) / Fold change /veh RHOB (11743442_s_at) / RFU RGS16 (11720943_a_at) / Fold change /veh RGS16 (11720943_a_at) / RFU RGS16 (11720944_at) / Fold change /veh RGS16 (11720944_at) / RFU, VPS4B / Fold change vs veh, VPS4B / RFU, CREB1 / Fold change vs veh, CREB1 / RFU, DNAJC13 / Fold change vs veh, DNAJC13 / RFU, GNAQ / Fold change vs veh, GNAQ / RFU, CDK5R1 / Fold change vs veh, CDK5R1 / RFU, ZRANB3 / Fold change vs veh, ZRANB3 / RFU, CUL4A / Fold change vs veh, CUL4A / RFU, CCNY / Fold change vs veh, CCNY / RFU, UFL1 / Fold change vs veh, UFL1 / RFU, COG3 / Fold change vs veh, COG3 / RFU, DIAPH2 / Fold change vs veh, DIAPH2 / RFU, SKA2 / Fold change vs veh, SKA2 / RFU, AFF3 / Fold change vs veh, AFF3 / RFU, LMF1 / Fold change vs veh, LMF1 / RFU, IPO11 / Fold change vs veh, IPO11 / RFU, DFFB / Fold change vs veh, DFFB / RFU, FOXP1 / Fold change vs veh, FOXP1 / RFU, CARD8 / Fold change vs veh, CARD8 / RFU, STRN3 / Fold change vs veh, STRN3 / RFU, ADK / Fold change vs veh, ADK / RFU, RASSF2 / Fold change vs veh, RASSF2 / RFU, WIPF1 / Fold change vs veh, WIPF1 / RFU, LARP1B / Fold change vs veh, LARP1B / RFU, RASA1 / Fold change vs veh, RASA1 / RFU, RB1 / Fold change vs veh, RB1 / RFU, PPFIA1 / Fold change vs veh, PPFIA1 / RFU, MAT2A / Fold change vs veh, MAT2A / RFU, CCT5 / Fold change vs veh, CCT5 / RFU, WDR92 / Fold change vs veh, WDR92 / RFU, CUX1 / Fold change vs veh, CUX1 / RFU, TTC7A / Fold change vs veh, TTC7A / RFU, TMEM135 / Fold change vs veh, TMEM135 / RFU, DEPTOR / Fold change vs veh, DEPTOR / RFU, CPM / Fold change vs veh, CPM / RFU, DNAJB6 / Fold change vs veh, DNAJB6 / RFU, CACNA2D3 / Fold change vs veh, CACNA2D3 / RFU, DTX4 / Fold change vs veh, DTX4 / RFU, TFCP2 / Fold change vs veh, TFCP2 / RFU, GMCL1 /// GMCL1P1 / Fold change vs veh, GMCL1 /// GMCL1P1 / RFU, AEBP2 / Fold change vs veh, AEBP2 / RFU, SNHG1 /// SNORD22 /// SNORD25 /// SNORD26 /// SNORD27 /// SNORD28 /// SNORD29 /// SNORD31 / Fold change vs veh, SNHG1 /// SNORD22 /// SNORD25 /// SNORD26 /// SNORD27 /// SNORD28 /// SNORD29 /// SNORD31 / Fold change (Aza/veh), C12orf56 (ProbeSet 11735607_a_at) / Fold change (ACY-1035/veh), C12orf56 (ProbeSet 11735607_a_at) / Fold change (Aza/veh), FGFR1OP (ProbeSet 11751329_s_at) / Fold change (ACY-1035/veh), FGFR1OP (ProbeSet 11751329_s_at) / Fold change (Aza/veh), VPS36 (ProbeSet 11739960_a_at) / Fold change (ACY-1035/veh), VPS36 (ProbeSet 11739960_a_at) / RFU SYPL1 (11715823_x_at) / Fold change /veh SYPL1 (11715823_x_at) / RFU IGFBP7 (11715501_s_at) / Fold change /veh IGFBP7 (11715501_s_at) / RFU REEP3 (11722064_at) / Fold change /veh REEP3 (11722064_at) / RFU IGLL1 (11728026_x_at) / Fold change /veh IGLL1 (11728026_x_at): dose or concentration left out as unconfirmed
Details: ProbeSet 11728314_at; LIST B

For `Nc1ncn([C@@H]2O[C@H](CO)[C@@H](O)[C@H]2O)c(=O)n1` [azacitidine], the “RFU, ZNF148” value was 202.48 RFU.
